From BindingDB's records for doi:10.1111/j.1747-0285.2012.01328.x (Technical University of LÓDz, 2012)
pIC50, pKi: −log10 of the molar value.

Target: HIV-1 protease (Human immunodeficiency virus, UniProt O90785)
Assay: Fluorometric Assay
Description: The Ki value were determine by a fluorometric assay with the fluorogenic and chromogenic substrate.

Chain of HIV-1 protease (O90785 whole entry): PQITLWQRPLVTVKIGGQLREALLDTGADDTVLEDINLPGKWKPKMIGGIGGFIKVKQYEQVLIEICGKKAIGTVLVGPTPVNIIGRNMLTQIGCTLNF

SMILES	pIC50	pKi
Cc1c(O)cccc1C(=O)N[C@@H](Cc1ccccc1)[C@@H](O)C[C@H](Cc1ccccc1)NC(=O)OC1CCOC1 (stereo partly drawn) [3-Hexanol derivative, 3]	9.20	9.49
Cc1c(O)cccc1C(=O)N[C@@H](Cc1ccccc1)[C@@H](O)C[C@H](Cc1ccccc1)NC(=O)c1ccccc1 [3-Hexanol derivative, 1]	9.00	8.34
Cc1ccccc1C(=O)N[C@@H](Cc1ccccc1)C[C@H](O)[C@H](Cc1ccccc1)NC(=O)c1ccccc1C [3-Hexanol derivative, 2]	8.52	8.32
CC(C)[C@@H](C(=O)N[C@@H](Cc1ccccc1)[C@@H](O)C[C@H](Cc1ccccc1)NC(=O)OC(C)(C)C)N(C)C(=O)OCc1ccccn1 [3-Hexanol derivative, 4]	9.77	10.68
